One assay relates to A2058 cell line. In words: 96-hour MTS viable cell number assay, A2058 cell line (monotherapy and concurrent combination). Format: cell-based. Particulars: Homo sapiens, 96-hour viable cell number endpoint by MTS, read-out: IC50 monotherapy (Geomean). The text has this: The objective of this assay was to determine the in-vitro combination interaction when combining AZD6244 or 2-(2-fluoro-4-iodophenylamino)-N-(2-hydroxyethoxy)-1,5-dimethyl-6-oxo-1,6-dihydropyridine-3-carboxamide concurrently with Compound A or Rapamycin in the A2058, NCI-H727, Calu-6, NCI-H2291, NCI-H23, A549 and NCI-H460 cell lines using a 96-hour viable cell number endpoint (MTS).
The A2058 cell line was routinely cultured and assayed in DMEM (phenol red free)+10% Foetal Calf Serum (FCS)+1% glutamine. The A2058 cell line is wild type for HRAS, KRAS and NRAS and mutant for the BRAF V600E mutation.
MTS viable cell number assays were carried out to determine seeding densities required for 96 hours of exponential growth. Cells were seeded into 96-well plates at their pre-determined seeding density allowing for log phase growth. After 4-hours cells were dosed with monotherapy AZD6244, 2-(2-fluoro-4-iodophenylamino)-N-(2-hydroxyethoxy)-1,5-dimethyl-6-oxo-1,6-dihydropyridine-3-carboxamide, Compound A, or Rapamycin using the Hydra/ECHO 550 platform. Following incubation with compound for 96-hours viable cell number was determined using an MTS viable cell number (Promega™) endpoint.
Concurrent combination: Cells were seeded into 96-well plates at the above-determined seeding density allowing for log phase growth. After 4 hours cells were dosed concurrently with
Non-linear MEA (Median Effect Analysis): The combination interaction between 2 active agents, each with well defined IC50 monotherapy dose responses was assessed using equal inhibitory effect ratios of the two agents (IC60, IC50, IC40, IC30, IC20, IC10). A combination index (CI)<0.85 indicates a synergistic interaction, CI 0.85-1.2 additivity and a CI>1.2 antagonism.
That is a fixed dose of the partially active agent (in MTS assays) was applied across the full dose response of the active agent. Relative potency is defined as the ratio of the combination IC50 to the monotherapy IC50.

For the next assay, the system named is LoVo xenografts. As to the kind of experiment: LoVo tumour xenograft growth in nude mice. It is filed as in vivo. The method, then: (§1) LoVo cells were grown in DMEM (Gibco) 10% FCS 1% Glutamine medium and HCT116 cells were grown in McCoys 5A 10% FCS 1% Glutamine, A549a and CaLu-6 cells were grown in RPMI1640 10% FCS 1% Glutamine. […] cells were implanted into the flank of nude mice (LoVo no matrigel, HCT-116, Calu-6 and A549a plus 50% matrigel).
(§2) When mean tumour size reached approximately 0.2 cm^3, the mice were randomized into control and treatment groups. The treatment groups received either 25 or 50 mg/kg AZD6244 (vehicle: HPMC/Tween milled overnight), or 20 mg/kg Compound A (vehicle 10% DMSO, 90% propylene glycol) by oral gavage, Rapamycin was given 4 mg/kg once weekly (10% DMSO-10% Cremaphor-10% Ethanol-70% water for injection. When administered in combination, Compound A was given 2 hours after the oral dose of the other compound. The control group received vehicle (10% DMSO 90% propylene glycol) alone, once daily by oral gavage.
(§3) Tumour volumes (measured by caliper), animal body weight and tumour condition were recorded twice weekly for the duration of the study. Mice were sacrificed by CO2 euthanasia. The tumour volume was calculated (taking length to be the longest diameter across the tumour and width to be the corresponding perpendicular diameter using the formula: (length×width)×√(length×width)×(π/6). Growth inhibition from the start of treatment was assessed by comparison of the differences in tumour volume between control and treated groups. Because the variance in mean tumour volume data increases proportionally with volume (and is therefore disproportionate between groups), data were log-transformed to remove any size dependency before statistical evaluation.
Statistical significance was evaluated using a one-tailed, two-sample t test. To analyze the data from the combination study, the statistical tool SigmaStat has been used. A two-way ANOVA test was performed using the factors concentration of drug A and concentration of drug B. The data analyzed was Log (final tumour volume)-Log (initial tumour volume) calculated for each individual group at the end of the study. This tool is used to assess whether there is a main effect of drug A, a main effect of drug B plus a significant interaction between the two compounds A and B (eg. one compound influences the effect of the other compound) which may be interpreted as antagonism, additivity or synergism.

The subject of the next assay is Calu-6 xenografts. As to the kind of experiment: Calu-6 tumour xenograft growth in nude mice. It is filed as in vivo. The method, then:
as §1, §2, §3
(§4) Statistical significance was evaluated using a one-tailed, two-sample t test. To analyze the data from the combination study, the statistical tool SigmaStat has been used. A two-way ANOVA test was performed using the factors concentration of drug A and concentration of drug B. The data analyzed was Log (final tumour volume)-Log (initial tumour volume) calculated for each individual group at the end of the study. […]

For another assay, the system named is A549a xenografts. In words: A549a tumour xenograft growth in nude mice. It is filed as in vivo. The method, then:
as §1, §2, §3, §4

The next assay deals with A549 cell line. As to the kind of experiment: 96-hour MTS viable cell number assay, A549 cell line (monotherapy and combination). Particulars: for IC50: Homo sapiens, A549, 96 h, read-out: IC50 monotherapy (Geomean).
Another assay deals with Calu-6 cell line. In words: 96-hour MTS viable cell number assay, Calu-6 cell line (monotherapy and combination). The conditions noted are these: Homo sapiens, Calu-6, 96 h, read-out: IC50 monotherapy (Geomean).
In a further assay the test system is NCI-H23 cell line. In words: 96-hour MTS viable cell number assay, NCI-H23 cell line (monotherapy and combination). Particulars: for IC50: Homo sapiens, NCI-H23, 96 h, read-out: IC50 monotherapy (Geomean).
The next assay has as its system NCI-H727 cell line. In words: 96-hour MTS viable cell number assay, NCI-H727 cell line (monotherapy and combination). The conditions noted are these: Homo sapiens, NCI-H727, 96 h, read-out: IC50 monotherapy (Geomean).
The subject of a further assay is NCI-H460 cell line. As to the kind of experiment: 96-hour MTS viable cell number assay, NCI-H460 cell line (monotherapy and combination). The conditions noted are these: for IC50: Homo sapiens, NCI-H460, 96 h, read-out: IC50 monotherapy (Geomean).
Another assay relates to NCI-H2291 cell line. As to the kind of experiment: 96-hour MTS viable cell number assay, NCI-H2291 cell line (monotherapy and combination). The conditions noted are these: for IC50: Homo sapiens, NCI-H2291, 96 h, read-out: IC50 monotherapy (Geomean).
Another assay concerns pERK 1/2(Thr202/Tyr204). As to the kind of experiment: pharmacodynamic effect of AZD6244 against pERK 1/2. It is filed as cell-based.
In a further assay the test system is HCT-116 xenografts. In words: HCT-116 tumour xenograft growth in nude mice. It is filed as in vivo. The method, then: as §1
When mean tumour size reached approximately 0.2 cm^3, the mice were randomized into control and treatment groups. […]
as §3, with “Mice were sacrificed by CO2 euthanasia.” left out
Statistical significance was evaluated using a one-tailed, two-sample t test. […]

Setting [1] is: 20 mg/kg Compound A, oral gavage.

Where only a bound is given, the exact number is not on record here.

Protocol for A549 cell line: (§5) The NCI-H727, Calu-6, NCI-H2291, NCI-H23, A549 and NCI-H460 cell lines were routinely cultured and assayed in RPMI (phenol red free)+10% Foetal Calf Serum (FCS)+1% glutamine.
(§6) MTS viable cell number assays were carried out to determine seeding densities required for 96 hours of exponential growth. Cells were seeded into 96-well plates at their pre-determined seeding density allowing for log phase growth. […] Following incubation with compound for 96-hours viable cell number was determined using an MTS viable cell number (Promega™) endpoint.
Protocol for Calu-6 cell line: as §5, §6
Protocol for NCI-H2291 cell line: as §5, §6
Protocol for NCI-H23 cell line: as §5, §6
Protocol for NCI-H460 cell line: as §5, §6
Protocol for NCI-H727 cell line: as §5, §6

What is called IC50 is the midpoint of a concentration-inhibition curve. For the molecule `CO[C@H]1C[C@@H]2CC[C@@H](C)[C@@](O)(O2)C(=O)C(=O)N2CCCC[C@H]2C(=O)O[C@H]([C@H](C)C[C@@H]2CC[C@@H](O)[C@H](OC)C2)CC(=O)[C@H](C)/C=C(\C)[C@@H](O)[C@@H](OC)C(=O)[C@H](C)C[C@H](C)/C=C/C=C/C=C/1C` [Rapamycin], the half-maximal inhibitory concentration (IC50) in the assay on A2058 cell line, in the assay with A549 cell line, with Calu-6 cell line, in the assay on NCI-H23 cell line, with NCI-H727 cell line and with NCI-H460 cell line was over 10000 nM throughout. In addition, the IC50 in the assay on NCI-H2291 cell line was over 10000 nM. Besides, the “reduction in geometric mean delta tumour volume compared with the vehicle treated control” value with LoVo xenografts (4 mg/kg Rapamycin) is on record as 38.2%; in the assay on Calu-6 xenografts (4 mg/kg once weekly Rapamycin), 37.2%; with A549a xenografts (4 mg/kg once weekly Rapamycin) it was 69.5%. Also, the “growth inhibitory effect reached” value is recorded as under 50% in the assay with A549 cell line (A549, regardless of the presence of AZD6244); under 50% in the assay on NCI-H23 cell line (NCI-H23, regardless of the presence of AZD6244); under 50% in the assay on NCI-H460 cell line (NCI-H460, regardless of the presence of AZD6244); under 50% with NCI-H2291 cell line (NCI-H2291, regardless of the presence of AZD6244).

As to `Cc1cc(C(=O)NOCCO)c(Nc2ccc(I)cc2F)n(C)c1=O` [2-(2-fluoro-4-iodophenylamino)-N-(2-hydroxyethoxy)-1,5-dimethyl-6-oxo-1,6-dihydropyridine-3-carboxamide], the 50% inhibitory concentration (IC50) with A2058 cell line was found to be 25 nM.

Turning to `Cn1cnc2c(F)c(Nc3ccc(Br)cc3Cl)c(C(=O)NOCCO)cc21` [AZD6244], the IC50 worked out at 526 nM with A2058 cell line; 12400 nM in the assay on A549 cell line; 257 nM in the assay with Calu-6 cell line; 1840 nM with NCI-H23 cell line; 36 nM in the assay with NCI-H727 cell line; 32400 nM in the assay on NCI-H460 cell line. Moreover, the IC50 in the assay on NCI-H2291 cell line worked out at 704 nM. Also, in the assay on pERK 1/2(Thr202/Tyr204), the “ED90, pharmacodynamic effect against pERK 1/2(Thr202/Tyr204)” value was 333 nM. The “ED95, pharmacodynamic effect against pERK 1/2(Thr202/Tyr204)” value in the assay with pERK 1/2(Thr202/Tyr204) worked out at 1000 nM. In addition, the EC50 in the assay on pERK 1/2(Thr202/Tyr204) (read-out: ED50, pharmacodynamic effect against pERK 1/2(Thr202/Tyr204)) was 20 nM. In addition, the “reduction in geometric mean delta tumour volume compared with the vehicle control” value with HCT-116 xenografts (25 mg/kg AZD6244, oral gavage) is given as 59%; in the assay on LoVo xenografts (50 mg/kg AZD6244, oral gavage), 43%. Further, the entries for the “reduction in geometric mean delta tumour volume compared with the vehicle treated control” value with LoVo xenografts (25 mg/kg twice daily AZD6244), in the assay with Calu-6 xenografts (50 mg/kg once daily AZD6244) and in the assay with A549a xenografts (25 mg/kg once daily AZD6244) were 38.7%, 93.2% and 53.4%, respectively.

Regarding `COc1ccc(-c2ccc3c(N4CCOC[C@@H]4C)nc(N4CCOC[C@@H]4C)nc3n2)cc1CO` [Compound A, [5-[2,4-bis[(3S)-3-methylmorpholin-4-yl]pyrido[5,6-e]pyrimidin-7-yl]-2-methoxyphenyl]methanol], the IC50 with A2058 cell line came out at 46 nM; in the assay with A549 cell line, 37 nM; in the assay on Calu-6 cell line, 50 nM; in the assay on NCI-H23 cell line it was 30 nM; in the assay with NCI-H727 cell line it was 68 nM; in the assay with NCI-H460 cell line, 26 nM. In addition, in the assay on NCI-H2291 cell line, the IC50 is 23 nM. Besides, the entries for the “reduction in geometric mean delta tumour volume compared with the vehicle control” value in the assay with HCT-116 xenografts (setting [1]) and with LoVo xenografts (setting [1]) were 24% and 66%, respectively. The figures for the “reduction in geometric mean delta tumour volume compared with the vehicle treated control” value in the assay on Calu-6 xenografts (20 mg/kg once daily Compound A) and in the assay on A549a xenografts (20 mg/kg once daily Compound A) were 44.9% and 94.1%, respectively.
